Read-outs that look alike come from different tables or passages of the source.
Experiments:
NCI-H69 SCLC cell line = assay: Antiproliferative activity, NCI-H69; type: cell-based, human; details: 3D assay; Calcein AM
[1] = test system: GA0087 gastric NEC patient-derived xenograft; assay: Efficacy in GA0087 gastric neuroendocrine carcinoma PDX model; details: for Median Tumor Volumes Day 46: head prints Day 46, title Day 53
[2] = Pharmacokinetics after single IV and oral dose, Beagle dogs; type: in vivo; details: Dog, male
Procedure: (§1) AUClast=area under the plasma concentration-time curve from time zero to time of last measurable concentration; Cmax=maximum plasma concentration; F=oral bioavailability; hr=hour, PK=pharmacokinetic; SD=standard deviation; t1/2 z=apparent half-life of the terminal phase of the concentration-time curve; tmax=time of Cmax. In mouse, PK parameters were determined using composite plasma samples obtained from n=3animals/time point. In other species, PK parameters are from n=3 animals and values shown are mean and SD (in parentheses).

[3] = test system: LU2527 lung NEC patient-derived xenograft; assay: Efficacy in LU2527 lung neuroendocrine carcinoma PDX model; details: 5 mg base/kg PO QD; Day 46
[4] = test system: gene expression (ST18, FREM2) in MKL-1 cells; assay: Gene expression modulation (RNA-seq, qRT-PCR) in cultured MKL-1 cells; type: cell-based, human; details: 10 and 100 nM, three days
Procedure: 22, 66, or 200 nM for qRT-PCR analysis.
Libraries were sequenced on an Illumina NextSeq® 500 System (Illumina, San Diego, Calif.) using 75 base paired-end RNA sequencing. Sequenced reads were mapped to the hg19 human genome build and differential expression was determined by analysis of variance across all replicates relative to the vehicle control
Sequenced reads were mapped to the hg19 human genome build using the Spliced Transcripts Alignment to a Reference (STAR) software tool (©Alexander Dobin, 2009-2016) and transcript counts were normalized using the Empirical Analysis of Digital Gene Expression Data in R (edgeR) and Differential gene expression analysis based on the negative binomial distribution (DESeq2) software tools (©Bioconductor, 2003-2017). Differential expression was determined by analysis of variance across all replicates relative to the vehicle control.

LNCaP cells [5] = assay: LNCaP cell proliferation with rapamycin; type: cell-based, human; details: 100 nM Compound A + 100 nM rapamycin vs rapamycin alone; 90 hours
NCI-H1417 SCLC xenograft = details: for Median Tumor Volumes Diff.: Day 0 vs Day 65
[6] = Pharmacokinetics after single IV and oral dose, Sprague Dawley rats; type: in vivo; details: Rat, female
Procedure: as §1

LNCaP cells [7] = assay: LNCaP cell proliferation with DHT and irradiation; type: cell-based, human; details: 100 nM Compound A + 10 nM DHT + 2Gy irradiation vs DHT with irradiation or DHT with Compound A; 220 hours
Procedure: LNCaP cells are androgen-sensitive human prostate adenocarcinoma cells. […] The proliferation of the LNCap cells was monitored for 220 hours.

[8] = test system: H3K4me2 at ST18 and FREM2 gene loci in MKL-1 cells; assay: ChIP-seq LSD1 occupancy and H3K4me2 status, MKL-1; type: cell-based, human; details: 100 nM, 3 days
[9] = 4-week toxicity study with 4-week recovery in mice; type: in vivo; details: for AUC0-24 / Cmax: Mice
[10] = 5 mg base/kg/dose QD×5/week, females
[11] = 5 mg base/kg/dose QD×5/week, males
[12] = 25 mg base/kg/dose QOD×3/week, females
[13] = 45 mg base/kg/dose QD×5/week, females
[14] = 45 mg base/kg/dose QD×5/week, males
[15] = Day 1, 15 mg base/kg/dose oral, 5 days on/2 days off, F
[16] = Day 26, 5 mg base/kg/dose oral, 5 days on/2 days off, F
[17] = Day 26, 5 mg base/kg/dose oral, 5 days on/2 days off, M
[18] = Day 26, 15 mg base/kg/dose oral, 5 days on/2 days off, M
[19] = Day 26, 25 mg base/kg/dose oral, QOD × 3/week, F
[20] = Day 26, 25 mg base/kg/dose oral, QOD × 3/week, M
[21] = Day 26, 45 mg base/kg/dose oral, 5 days on/2 days off, F
[22] = Day 26, 45 mg base/kg/dose oral, 5 days on/2 days off, M

Question: With `COc1ccc(-c2c(-c3ccc(C#N)c(F)c3)nc(N3CCC(N)CC3)n(C)c2=O)cc1F` [Compound A] as the compound, how does the IC50 (NCI-H69 SCLC cell line) read?
Answer: 7 µM

Question: And the “Median Tumor Volumes Day 46” value ([1]; 1.5 mg base/kg PO QD × 53)?
Answer: 706.4 mm^3

Question: And the “Median Tumor Volumes Diff.” value ([1]; 5 mg base/kg PO QD × 53)?
Answer: 836.3 mm^3

Question: And the “Median Tumor Volumes Day 46” value ([1]; 5 mg base/kg PO QD × 53)?
Answer: 673.2 mm^3

Question: And the “AUC∞” value ([2]; single IV 1 mg base/kg)?
Answer: 1944 ng·h/mL

Question: What about the CL ([2]; single IV 1 mg base/kg) of the same compound?
Answer: 9 mL/min/kg

Question: What about the Vss ([2]; single IV 1 mg base/kg) of the same compound?
Answer: 11.058 L/kg

Question: What about the “t1/2,z” value ([2]; single IV 1 mg base/kg) of the same compound?
Answer: 15.5 h

Question: And the “% F” value ([2]; single oral 1 mg base/kg)?
Answer: 84%

Question: And the AUClast ([2]; single oral 1 mg base/kg)?
Answer: 1089 ng·h/mL

Question: And the Cmax ([2]; single oral 1 mg base/kg)?
Answer: 69 ng/mL

Question: And the “t1/2,z” value ([2]; single oral 1 mg base/kg)?
Answer: 15.0 h

Question: And the tmax ([2]; single oral 1 mg base/kg)?
Answer: 2.0 h

Question: And the “% F” value ([2]; single oral 3 mg base/kg)?
Answer: 100%

Question: What about the AUClast ([2]; single oral 3 mg base/kg) of the same compound?
Answer: 3792 ng·h/mL

Question: And the Cmax ([2]; single oral 3 mg base/kg)?
Answer: 298 ng/mL

Question: What about the “t1/2,z” value ([2]; single oral 3 mg base/kg) of the same compound?
Answer: 19.4 h

Question: And the tmax ([2]; single oral 3 mg base/kg)?
Answer: 1.0 h

Question: And the “% F” value ([2]; single oral 6 mg base/kg)?
Answer: 100%

Question: And the AUClast ([2]; single oral 6 mg base/kg)?
Answer: 8792 ng·h/mL

Question: What about the Cmax ([2]; single oral 6 mg base/kg) of the same compound?
Answer: 627 ng/mL

Question: And the “t1/2,z” value ([2]; single oral 6 mg base/kg)?
Answer: 17.8 h

Question: And the tmax ([2]; single oral 6 mg base/kg)?
Answer: 1.0 h

Question: What about the “% TGI” value [3] of the same compound?
Answer: 84%

Question: What about the “ST18 and FREM2 gene expression changes (upregulated)” value [4] of the same compound?
Answer: at least 2 fold

Question: And the LNCaP cell proliferation (LNCaP cells [5])?
Answer: greater inhibition of LNCap cell proliferaton

Question: And the “mean body weight gain by end of study” value (NCI-H1417 SCLC xenograft; 2.5 mg base/kg)?
Answer: 1%

Question: What about the “Median Tumor Volumes Diff.” value (NCI-H1417 SCLC xenograft; 2.5 mg base/kg PO QD × 65) of the same compound?
Answer: 69.9 mm^3

Question: What about the “mean body weight gain by end of study” value (NCI-H1417 SCLC xenograft; 5 mg base/kg) of the same compound?
Answer: 7.5%

Question: What about the “Median Tumor Volumes Diff.” value (NCI-H1417 SCLC xenograft; 5 mg base/kg PO QD × 65) of the same compound?
Answer: 92.3 mm^3

Question: What about the “AUC∞” value ([6]; single IV 5 mg base/kg) of the same compound?
Answer: 733 ng·h/mL

Question: And the CL ([6]; single IV 5 mg base/kg)?
Answer: 115 mL/min/kg

Question: What about the Vss ([6]; single IV 5 mg base/kg) of the same compound?
Answer: 0.2625 L/kg

Question: And the “t1/2,z” value ([6]; single IV 5 mg base/kg)?
Answer: 3.6 h

Question: And the “% F” value ([6]; single oral 5 mg base/kg)?
Answer: 33%

Question: And the AUClast ([6]; single oral 5 mg base/kg)?
Answer: 222 ng·h/mL

Question: What about the Cmax ([6]; single oral 5 mg base/kg) of the same compound?
Answer: 47 ng/mL

Question: And the “t1/2,z” value ([6]; single oral 5 mg base/kg)?
Answer: 3.0 h

Question: And the tmax ([6]; single oral 5 mg base/kg)?
Answer: 2.0 h

Question: What about the “% F” value ([6]; single oral 15 mg base/kg) of the same compound?
Answer: 28%

Question: And the AUClast ([6]; single oral 15 mg base/kg)?
Answer: 570 ng·h/mL

Question: What about the Cmax ([6]; single oral 15 mg base/kg) of the same compound?
Answer: 123 ng/mL

Question: What about the “t1/2,z” value ([6]; single oral 15 mg base/kg) of the same compound?
Answer: 2.9 h

Question: What about the tmax ([6]; single oral 15 mg base/kg) of the same compound?
Answer: 2.0 h

Question: What about the “% F” value ([6]; single oral 50 mg base/kg) of the same compound?
Answer: 74%

Question: And the AUClast ([6]; single oral 50 mg base/kg)?
Answer: 4652 ng·h/mL

Question: And the Cmax ([6]; single oral 50 mg base/kg)?
Answer: 621 ng/mL

Question: What about the “t1/2,z” value ([6]; single oral 50 mg base/kg) of the same compound?
Answer: 3.0 h

Question: What about the tmax ([6]; single oral 50 mg base/kg) of the same compound?
Answer: 6.0 h

Question: And the LNCaP cell proliferation (LNCaP cells [7])?
Answer: significantly inhibits LNCaP cell proliferation

Question: And the “H3K4me2 at the LSD1 binding site of FREM2 gene” value [8]?
Answer: increased H3K4me2

Question: What about the “H3K4me2 at the LSD1 binding site of ST18 gene” value [8] of the same compound?
Answer: increased H3K4me2

Question: What about the “mean steady state AUC0-24” value [9, 10] of the same compound?
Answer: 2,410 ng·hr/mL

Question: And the “mean steady state Cmax” value [9, 10]?
Answer: 276 ng/mL

Question: What about the “mean steady state AUC0-24” value [9, 11] of the same compound?
Answer: 2,010 ng·hr/mL

Question: And the “mean steady state Cmax” value [9, 11]?
Answer: 276 ng/mL

Question: What about the “mean steady state AUC0-24” value [9, 12] of the same compound?
Answer: 17,500 ng·hr/mL

Question: And the “mean steady state Cmax” value [9, 12]?
Answer: 1,740 ng/mL

Question: What about the “mean steady state Cmax” value ([9]; 25 mg base/kg/dose QOD×3/week, males) of the same compound?
Answer: 1,450 ng/mL

Question: What about the “animals sacrificed in moribund condition” value ([9]; 45 mg base/kg/dose QD×5/week, 4 males and 1 female, TK subgroup) of the same compound?
Answer: Five

Question: What about the “mean steady state AUC0-24” value [9, 13] of the same compound?
Answer: 26,500 ng·hr/mL

Question: What about the “mean steady state Cmax” value [9, 13] of the same compound?
Answer: 2,130 ng/mL

Question: What about the “mean steady state AUC0-24” value [9, 14] of the same compound?
Answer: 29,000 ng·hr/mL

Question: What about the “mean steady state Cmax” value [9, 14] of the same compound?
Answer: 2,620 ng/mL

Question: And the AUC0-24 ([9]; Day 1, 5 mg base/kg/dose oral, 5 days on/2 days off, F)?
Answer: 1500 ng·h/mL

Question: What about the Cmax ([9]; Day 1, 5 mg base/kg/dose oral, 5 days on/2 days off, M) of the same compound?
Answer: 230 ng/mL

Question: What about the AUC0-24 [9, 15] of the same compound?
Answer: 9680 ng·h/mL

Question: And the Cmax [9, 15]?
Answer: 850 ng/mL

Question: What about the AUC0-24 ([9]; Day 1, 15 mg base/kg/dose oral, 5 days on/2 days off, M) of the same compound?
Answer: 13000 ng·h/mL

Question: What about the AUC0-24 [9, 16] of the same compound?
Answer: 2410 ng·h/mL

Question: And the Cmax [9, 16]?
Answer: 276 ng/mL

Question: And the AUC0-24 [9, 17]?
Answer: 2010 ng·h/mL

Question: What about the Cmax [9, 17] of the same compound?
Answer: 275 ng/mL

Question: What about the AUC0-24 [9, 18] of the same compound?
Answer: 7960 ng·h/mL

Question: What about the Cmax [9, 18] of the same compound?
Answer: 628 ng/mL

Question: What about the AUC0-24 [9, 19] of the same compound?
Answer: 17500 ng·h/mL

Question: And the Cmax [9, 19]?
Answer: 1740 ng/mL

Question: What about the AUC0-24 [9, 20] of the same compound?
Answer: 17800 ng·h/mL

Question: And the Cmax [9, 20]?
Answer: 1450 ng/mL

Question: And the AUC0-24 [9, 21]?
Answer: 26500 ng·h/mL

Question: What about the Cmax [9, 21] of the same compound?
Answer: 2130 ng/mL

Question: What about the AUC0-24 [9, 22] of the same compound?
Answer: 29000 ng·h/mL

Question: What about the Cmax [9, 22] of the same compound?
Answer: 2620 ng/mL

Question: And the STD10 ([9]; QD ×5/week schedule)?
Answer: ≥ 45 mg base/kg/dose
